Assay results from ChEMBL document CHEMBL1143173, “2D Autocorrelation, CoMFA, and CoMSIA modeling of protein tyrosine kinases' inhibition by substituted pyrido[2,3-d]pyrimidine derivatives” (Bioorg Med Chem, 2008).

What was measured:
[1] = molecular target: Proto-oncogene tyrosine-protein kinase Src (Homo sapiens) (UniProt P12931); test: Inhibition of cSrc
[2] = Inhibition of FGFR
[3] = Inhibition of PDGFR

Chain of Proto-oncogene tyrosine-protein kinase Src (Homo sapiens) (P12931 2-536 limits assumed): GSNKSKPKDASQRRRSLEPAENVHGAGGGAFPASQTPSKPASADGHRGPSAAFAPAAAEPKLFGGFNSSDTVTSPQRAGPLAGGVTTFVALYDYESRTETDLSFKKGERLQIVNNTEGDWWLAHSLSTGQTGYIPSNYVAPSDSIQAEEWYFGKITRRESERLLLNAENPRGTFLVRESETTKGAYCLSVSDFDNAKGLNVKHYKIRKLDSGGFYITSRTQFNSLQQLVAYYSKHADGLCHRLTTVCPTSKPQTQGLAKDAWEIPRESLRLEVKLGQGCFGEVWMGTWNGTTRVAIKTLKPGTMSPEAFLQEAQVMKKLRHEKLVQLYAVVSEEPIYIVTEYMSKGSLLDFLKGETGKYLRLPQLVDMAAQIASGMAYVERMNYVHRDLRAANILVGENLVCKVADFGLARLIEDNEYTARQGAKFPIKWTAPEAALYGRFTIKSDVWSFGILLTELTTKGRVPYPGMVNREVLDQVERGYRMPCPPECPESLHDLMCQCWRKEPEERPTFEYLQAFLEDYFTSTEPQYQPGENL

Structure (SMILES) | log(10^6/IC50) [1] | log(10^6/IC50) [2] | log(10^6/IC50) [3]
COc1cc(OC)cc(-c2cc3cnc(N)nc3n(C)c2=O)c1 | 1.3 | 3.9 | 1.37
CN(C)c1cc(-c2cc3cnc(N)nc3nc2NC(=O)NC(C)(C)C)cc(N(C)C)c1 | 1.3 | 1.8 | 1.3
CCOc1cc(OCC)cc(-c2cc3cnc(N)nc3nc2NC(=O)NC(C)(C)C)c1 | 1.3 | 2.78 | 1.3
CC(C)(C)NC(=O)Nc1nc2nc(N)ncc2cc1-c1cc(C(F)(F)F)cc(C(F)(F)F)c1 | 1.3 | 1.3 | 1.3

Other lines, results leading:

log(10^6/IC50) [1] | log(10^6/IC50) [2] | log(10^6/IC50) [3] | Structure (SMILES)
5 | 4.21 | 4.15 | Cn1c(=O)c(-c2c(Cl)cccc2Cl)cc2cnc(Nc3ccc(CC(=O)O)cc3)nc21
2 | 1.3 | 1.3 | Cn1c(=O)c(-c2c(Cl)cccc2Cl)cc2cncnc21
1.3 | 1.3 | 1.3 | Cc1ncc2cc(-c3c(Cl)cccc3Cl)c(=O)n(C)c2n1
5 | 4.29 | 3.94 | CN1CCN(c2ccc(Nc3ncc4cc(-c5c(Cl)cccc5Cl)c(=O)n(C)c4n3)cc2)CC1
1.3 | 1.3 | 1.3 | CN(C)c1ncc2cc(-c3c(Cl)cccc3Cl)c(=O)n(C)c2n1
4.55 |  |  | COc1ccc(NC(=O)Nc2nc3nc(NCCCN4CCN(C)CC4)ncc3cc2-c2c(Cl)cccc2Cl)cc1
